Values quoted from earlier work, collected in patent publication US20100173015A1, “COMPOSITIONS AND METHODS FOR THE ABSORPTION, CHELATION, AND ELIMINATION OF TRACE ELEMENTS” (priority 2009, published 2010).

How the values were obtained:
[1] = test system: GSTM1; conditions: microarray, in the presence of taxifolin
[2] = test system: NQO1; conditions: microarray, in the presence of taxifolin
[3] = test system: umbilical vein endothelial (HUVE) cells
[4] = test system: human lung embryonic fibroblasts (TIG-1); conditions: TIG-1 cells
[5] = test system: CYP2E1; conditions: microarray, in the presence of taxifolin

SMILES: O=C1c2c(O)cc(O)cc2O[C@H](c2ccc(O)c(O)c2)[C@H]1O [Dihydroquercetin]
- expression of phase II detoxification enzyme GSTM1 [1]: upregulated
- expression of phase II detoxification enzyme NQO1 [2]: upregulated
- 50% lethal concentration [3]: > 200 µmol
- 50% lethal concentration [4]: > 300 µmol
- expression of phase I detoxification enzyme CYP2E1 [5]: down regulated
